Measured values as given in patent publication US5827836A, “Retinoid glycerol phospholipid conjugates” (Clarion Pharmaceuticals Inc., priority 1996, dated 1998).
Where two headings read alike, the source gives them in different places.

How the values were obtained:
[1] = system: RAW 264.7 murine monocyte/macrophage line; assay: Anti-inflammatory activity by inhibition of macrophage chemiluminescence (respiratory burst, PMA-stimulated, luminol); assay type: cell-based; conditions: for minimal effective concentration: PMA-stimulated RAW 264.7, read-out: concentration at which marked inhibition of luminescence is seen
Excerpt: Assay for Anti-inflammatory Activity by Inhibition of Macrophage Chemiluminescence
The RAW 264.7 cell line (available from the ATCC under accession no. TIB 71) is a murine monocyte/macrophage line the cells of which show many of the differentiative functions of a macrophage. Like macrophages, the cells are capable of phagocytosis and undergo an oxidative burst (increased oxygen consumption) and production of oxygen radicals (e.g., superoxide) in response to appropriate signals. Agents that inhibit the activation of these cells in vitro, so as to inhibit the respiratory burst and corresponding production of oxygen radicals associated with the activation, are therefore inhibitors of macrophage activation and critical steps in inflammatory processes. These agents are likely, then to be anti-inflammatories.
The respiratory burst and corresponding production of oxygen radicals that accompany macrophage activation can be measured in a variety of ways, including chemiluminescence based on the reaction of the oxygen radicals with luminol added to the culture medium (see M. A. Trush et al, 1978, "The Generation of Chemiluminescence by Phagocytic Cells." Methods in Enzymology 57: 462-494). Indeed, chemiluminescence generated from luminol in the culture medium of macrophage cell lines is recognized in the art as a marker of macrophage activation.
Cell line: RAW 264.7 (ATCC TIB 71);
1. Culture medium: DMEM with 5% FBS (attachment dependent);
2. Standard protocol for culturing cell lines: in T-75 or T-150 flasks; 37° C.; 95% air, 5% CO2; 100% humidity;
3. Cell lines are passaged when approximately 80% confluent; with trypsin (1 mg/mL) and EDTA ([…] in Ca-Mg free Hank's balanced salt solution); at a 1:4 to 1:5 split;
4. Trypsinize the cells and count with a hemacytometer;
5. Adjust concentration of cells to approximately 1,000,000 cells per mL;
6. Suspend cells in DMEM lacking phenol red and without FBS;
7. Pipette 1 mL into a standard luminometer cuvet (12×75), commercially obtainable from Analytical Luminescence Laboratories, San Diego;
8. Add luminol to final concentration of 1 μM;
9. Add test compound (0, 1, 3, 10, 30 μM);
10. Add 100 nanograms of phorbol myristate acetate (PMA);
11. Wait 1 minute and read photo counts (i.e., luminescence) on a Monolight 2010 luminometer available from Analytical Luminescence Laboratories;
The results are represented in Table 2, which illustrates the marked inhibition of luminescence by the compounds tested (CPR 2003 and CPR 2004) at concentrations above 3 μM. Results are calculated as percent of control (no test compound present).

[2] = system: human tumor cell line HL-60; assay: HL-60 cell proliferation (in vitro HL-60 cell inhibition assay, SRB); assay type: cell-based; conditions: particularly against leukemia
Procedure: (§1) Use of the HL-60 cell line in evaluating the anti-tumor activity of retinoids is reported in the literature, for example, see Janick-Buckner, D. et al.,FASEB J. 5:320-325; 1991
(§2) 1. Human tumor cell line HL-60 (ATCC CCL 240), obtainable from the American Type Culture Collection (ATCC), a promyelocytic leukemia cell line.
(§3) 2. Culture media: Roswell Park Memorial Institute-1640 (RPMI-1640) plus 10% Fetal Bovine Serum (FBS).
(§4) 3. Standard protocol for culturing cell lines: in T-75 or T-150 flasks; 37° C.; 95% air, 5% CO2; 100% humidity.
(§5) a. The HL 60 cell line is passaged by removing approximately 75% of the media and cell mixture and adding an equal amount of fresh media once or twice a week.
b. […]
j. Read absorbance at 562 nm using a standard 96-well microtiter plate reader. Absorbance readings are linear with dye concentrations below 1.8 absorbance units. To reduce absorbance, decrease wavelength at which measurements are taken;
single point reading; the higher the absorbance, the higher the cell number; […]
initial control cell number (ICCN)-no test compound present in culture medium, end point determined at the time of treatment;
final control cell number (FCCN)-no test compound present in culture medium, end point determined at 72 hours after treatment;
final cell number (FCN)-test compound present in culture medium, end point determined at 72 hours after treatment; […]

[3] = system: PAM-212 murine keratinocyte cell line; assay: Anti-psoriatic activity by inhibition of keratinocyte proliferation (PAM-212, SRB); assay type: cell-based, murine (BALB/c mice); conditions: for minimal effective concentration: Mus musculus, PAM212, PAM-212, 72 hours, FIG. 2, read-out: concentration at which marked inhibition of cell growth is seen; for inhibition of keratinocyte proliferation (in words): in vitro
Procedure: Assay for Anti-psoriatic Activity by Inhibition of Keratinocyte Proliferation:
1. Cell line: PAM-212 murine keratinocyte cell line isolated and cultivated from newborn BALB/c mice (see S. H. Yuspa et al., Cancer Research, 40, 4694-4703, December, 1980) that appears to retain many characteristics of normal keratinocytes.
2. Culture medium: 1:1 DMEM and Ham's F-12 with 10% FBS.
3. Standard protocol for culturing cell lines; in T-75 or T-150 flasks; 37° C.; 95% air, 5% CO2; 100% humidity. Cell line PAM-212 is passaged when approximately 80% confluent; with trypsin (1 mg/mL) and EDTA (1 mM EDTA in Ca-Mg free Hank's balanced salt solution); at a 1:4 to 1:5 split.
a. All procedures are performed aseptically in a Class II biological safety cabinet using standard BL-2 containment procedures. At approximately monthly intervals, fresh cells are thawed from liquid nitrogen storage in order to prevent genetic drift in stock cell lines.
After cell passage, count cells with a hemacytometer;
a. Adjust concentration to approximately 1,000 cells per 100 μL;
b. Pipette 100 μL cell suspension per well of a standard 96-well microtiter plate;
c. Preincubate 24 hours to allow cells to attach;
d. Add test compound dispersed in phosphate buffered saline (PBS), or in DMSO for the comparative compound, retinoic acid, to achieve final concentration levels ranging from 0 to 100 μM;
e. Adjust volume to 200 μL/well by adding DMEM/F12; and
f. Incubate 72 hours under standard culture conditions and determine end points.
Remove media and add 100 μL/well of cold (4° C.) 10% (w/v) trichloroacetic acid (TCA) in water;
a. After 1 hour at 4° C., remove TCA and rinse cells 5 times with tap water;
c. Add 50 μL/well of 0.4% (w/v) sulforhodamine B (SRB) in 1% (v/v) acetic acid in water;
d. After 30 minutes at room temperature, rinse cells 4 times with 1% (v/v) acetic acid in water to remove residual stain;
f. Dissolve stain by adding 100 μL/well of unbuffered Tris base, pH 10.5;
g. Read absorbance at 562 nm using a standard 96-well microtiter plate reader. Absorbance readings are linear with dye concentrations below 1.8 absorbance units. To reduce absorbance, decrease wavelength at which measurements are taken.
single point reading; the higher the absorbance, the higher the cell number;
a. background-no cell and no test compound present in culture medium;
b. control-no test compound present in culture medium;
c. initial control cell number (ICCN)-no test compound present in culture medium, end point determined at the time of treatment;
d. final control cell number (FCCN)-no test compound present in culture medium, end point determined at 72 hours after treatment;
e. final cell number (FCN)-test compound present in culture medium, end point determined at 72 hours after treatment;
ICCN=A(control, zero hour)-A(background) […]

[4] = system: human tumor cell line HL-60; assay: HL-60 cell viability (trypan blue exclusion); assay type: cell-based; conditions: for cell viability (in words): HL-60, compared to retinoic acid; for viability at 10 µM / viability at 30 µM / viability at 100 µM: Homo sapiens
Procedure: as §1, §2, §3, §4, §5
b. All procedures are performed aseptically in a Class II biological safety cabinet using standard BL-2 containment procedures. At approximately monthly intervals, fresh cells are thawed from liquid nitrogen storage in order to prevent genetic drift in stock cell lines.
a. after cell passage, count cells with a hemacytometer;
b. adjust concentration to approximately 20,000 cells per 100 μL;
C. pipette 100 μL cell suspension per well of a standard 96-well microtiter plate;
d. add test compound dissolved in phosphate buffered saline (PBS), or in DMSO for the comparative compound, retinoic acid, for final concentration levels ranging from 0 to 100 μM;
e. adjust volume to 200 μL/well by adding RPMI-1640;; and
f. incubate 72 hours under standard culture conditions and determine end points.
6. End Point 2: Cell Viability:
a. Add 100 μL/well of 0.5% (w/v) trypan blue in PBS.
b. Using a hemacytometer, determine the percent viable cells by calculating the ratio of cells that exclude trypan blue to the total number of cells.

[5] = Liposome formation in PBS; assay type: physicochemical; conditions: sonication
Excerpt: Solutions of the subject compounds of Formula (I) in PBS (phisphate-buffered saline) have characteristics indicative of the presence of liposomes. These preparations require sonication in order to form uniform, cloudy suspensions. The requirement for sonication and the cloudy appearance of the suspensions are some known properties of liposomal preparations. Additionally, foam generation, which is associated with micellar suspensions, is not a property of these preparations.

[6] = R. Andreesen, Prog. Biochem. Pharmacol., 22, 118-131; cited from earlier work
[7] = RAW264.7, PMA-stimulated mouse macrophages, 1 μM, read-out: % Inhibition of respiratory burst
[8] = RAW264.7, PMA-stimulated mouse macrophages, 3 μM, read-out: % Inhibition of respiratory burst
[9] = RAW264.7, PMA-stimulated mouse macrophages, 10 μM, read-out: % Inhibition of respiratory burst
[10] = RAW264.7, PMA-stimulated mouse macrophages, 30 μM, read-out: % Inhibition of respiratory burst
[11] = Mus musculus, RAW264.7, read-out: % Inhibition of respiratory burst

SMILES | reduction of macrophage activation (in words) [1] | minimal effective concentration ([1]; Mus musculus, RAW264.7) | inhibition at 1 µM [1, 7] | inhibition at 3 µM [1, 8] | inhibition at 10 µM [1, 9] | inhibition at 30 µM [1, 10] | anti-tumor or anti-cancer activity (in words) [2] | minimal effective concentration [3] | inhibition of keratinocyte proliferation (in words) [3] | cell viability (in words) [4] | viability at 10 µM ([4]; HL-60, 72 h) | viability at 30 µM ([4]; HL-60, 72 h) | viability at 100 µM ([4]; HL-60, 72 h) | also measured
CCCCCCCCCCCCCCCCCCOCC(COP(=O)([O-])OCC[N+](C)(C)C)OC(=O)/C=C(C)/C=C/C=C(C)/C=C/C1=C(C)CCCC1(C)C (stereo not drawn) [CPR 2003, 1-O-n-Octadecyl-2-(all-trans-retinoyl)-glycero-3-phosphocholine] | markedly reduce macrophage activation | > 3 µM | 19% | 40% | 81% | 99% | marked anti-tumor or anti-cancer activity | > 1 µM | markedly inhibit proliferation of these cells in vitro | relatively high cell viability | 97% | 93% | 97% | –
CC1=C(/C=C/C(C)=C/C=C/C(C)=C/C(=O)O)C(C)(C)CCC1 [Retinoic Acid, retinoic acid, reference compound] | – | – | – | – | – | – | – | – | – | – | – | – | – | inhibition at 1 µM [1, 11]: 2%; inhibition at 3 µM [1, 11]: 6%; inhibition at 10 µM [1, 11]: 3%; inhibition at 30 µM [1, 11]: 6%; liposome formation (in words) [5]: unlike retinoic acid, the subject compounds are capable of forming liposomes; viability at 10 µM ([4]; HL-60, 10 μM, 72 hours, read-out: % Viability): 87%; viability at 30 µM ([4]; HL-60, 30 μM, 72 hours, read-out: % Viability): 70%; viability at 100 µM ([4]; HL-60, 100 μM, 72 hours, read-out: % Viability): 0%
CCCCCCCCCCCCCCCCCCOCC(COC(=O)/C=C(C)/C=C/C=C(C)/C=C/C1=C(C)CCCC1(C)C)OP(=O)([O-])OCC[N+](C)(C)C (stereo not drawn) [CPR 2004, 1-O-n-Octadecyl-3-(all-trans-retinoyl)-glycero-2-phosphocholine] | markedly reduce macrophage activation | > 3 µM | 14% | 55% | 93% | 99% | marked anti-tumor or anti-cancer activity | > 10 µM | markedly inhibit proliferation of these cells in vitro | relatively high cell viability | 92% | 94% | 59% | –
CCCCCCCCCCCCCCCCCCOC[C@H](COP(=O)([O-])OCC[N+](C)(C)C)OC [ET 18-OCH3, 1-O-octadecyl-2-O-methyl-sn-glycero-3-phosphocholine] | – | – | – | – | – | – | – | – | – | – | – | – | – | anti-tumor activity (in words) [6]: markedly potent anti-tumor activity
